Data published in patent publication US9073967B2, “High salt-resistance antibacterial peptide and method for producing the same” (NATIONAL TSING HUA UNIVERSITY, priority 2011, dated 2015).
In brackets after ≈: the same amount, converted by molar mass.

Columns and labels:
[1] = tested on: C. dubliniensis HIV patient YHO50092; assay: organism not typed
[2] = tested on: C. glabrata HIV patient YHO50105; assay: organism not typed
[3] = tested on: C. albicans HIV patient YHO50001; assay: organism not typed
[4] = tested on: C. albicans ATCC 90028 YLO12; assay: microbe, parasite or virus in culture; conditions: Candida albicans, ATCC90028
[5] = tested on: C. tropicalis ATCC 13803 YLO86; assay: microbe, parasite or virus in culture; conditions: Candida tropicalis, ATCC13803
C. krusei ATCC 6258 YLO6 = assay: microbe, parasite or virus in culture; conditions: Pichia kudriavzevii, ATCC6258
[6] = tested on: C. tropicalis HIV patient YHO50007; assay: organism not typed
[7] = tested on: C. krusei HIV patient YHO50075; assay: organism not typed
[8] = tested on: C. parapsilosis ATCC 22019 YLO7; assay: microbe, parasite or virus in culture; conditions: Lodderomyces parapsilosis, ATCC22019
[9] = tested on: C. glabrata ATCC 9003 YLO8; assay: microbe, parasite or virus in culture; conditions: Nakaseomyces glabratus, ATCC9003
[10] = tested on: C. tropicalis HIV patient YHO50114; assay: organism not typed
[11] = tested on: C. tropicalis HIV patient YHO50013; assay: organism not typed
[12] = tested on: C. albicans HIV patient YHO50005; assay: organism not typed
[13] = tested on: C. albicans HIV patient YHO50072; assay: organism not typed

OC(Cn1cncn1)(Cn1cncn1)c1ccc(F)cc1F [Flu, fluconazole]
MIC [1]: 0.5 µg/mL (≈ 1.63 µM)
MIC [2]: 16 µg/mL (≈ 52.2 µM)
MIC [3]: 2 µg/mL (≈ 6.53 µM)
MIC [4]: 1 µg/mL (≈ 3.27 µM)
MIC [5]: > 64 µg/mL
MIC (C. krusei ATCC 6258 YLO6): 32 µg/mL (≈ 104 µM)
MIC [6]: > 64 µg/mL
MIC [7]: 64 µg/mL (≈ 209 µM)
MIC [8]: 8 µg/mL (≈ 26.1 µM)
MIC [9]: 16 µg/mL (≈ 52.2 µM)
MIC [10]: > 64 µg/mL
MIC [11]: > 64 µg/mL
MIC [12]: 1 µg/mL (≈ 3.27 µM)
MIC [13]: > 64 µg/mL
